Test results reported in US20080311589A1, “METHOD OF HIGH-THROUGHPUT SCREENING OF MOLECULES AND COMPOUNDS FOR THEIR EFFECTS ON BIOLOGICAL AND CHEMICAL PROCESSES” (priority 1999, published 2008).
Entries after “also recorded” stand apart in the source; their conditions may differ.

Target: T1, conventional kinesin (Homo sapiens, UniProt P33176)
T1 sequence (P33176 1-963): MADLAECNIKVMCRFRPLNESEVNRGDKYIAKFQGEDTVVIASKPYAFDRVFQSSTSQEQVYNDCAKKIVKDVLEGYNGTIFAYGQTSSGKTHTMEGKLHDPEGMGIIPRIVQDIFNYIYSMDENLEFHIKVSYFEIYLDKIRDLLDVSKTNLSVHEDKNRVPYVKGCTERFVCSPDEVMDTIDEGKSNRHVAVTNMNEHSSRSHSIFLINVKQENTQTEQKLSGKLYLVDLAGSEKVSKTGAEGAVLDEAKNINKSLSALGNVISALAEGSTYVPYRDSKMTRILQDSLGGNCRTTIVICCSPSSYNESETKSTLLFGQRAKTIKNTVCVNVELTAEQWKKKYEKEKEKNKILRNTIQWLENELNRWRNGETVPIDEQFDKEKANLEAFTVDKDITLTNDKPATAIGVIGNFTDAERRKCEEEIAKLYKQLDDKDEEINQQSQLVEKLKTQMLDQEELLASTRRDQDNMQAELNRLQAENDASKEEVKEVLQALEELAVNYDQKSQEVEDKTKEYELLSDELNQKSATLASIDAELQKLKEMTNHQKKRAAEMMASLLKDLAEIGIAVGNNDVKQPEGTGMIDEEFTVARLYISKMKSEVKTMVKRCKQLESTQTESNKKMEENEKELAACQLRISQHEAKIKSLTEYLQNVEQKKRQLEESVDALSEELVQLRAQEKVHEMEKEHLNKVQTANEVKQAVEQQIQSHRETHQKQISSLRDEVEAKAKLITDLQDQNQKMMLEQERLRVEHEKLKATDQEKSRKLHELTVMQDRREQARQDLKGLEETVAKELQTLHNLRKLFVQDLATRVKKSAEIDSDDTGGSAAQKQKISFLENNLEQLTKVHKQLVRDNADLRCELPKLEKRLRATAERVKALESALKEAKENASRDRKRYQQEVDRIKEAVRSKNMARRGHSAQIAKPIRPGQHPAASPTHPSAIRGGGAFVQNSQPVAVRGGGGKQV
Assay: microtubule gliding driven by conventional kinesin
Assay type: biochemical
Conditions: 200 μM
Method: FIG. 26. […] Conventional kinesin motility was not inhibited in the same assay. A. Model for spindle bipolarity. Plus-end directed motors, such as Eg5 are thought to be involved in the separation of the centrosomes and the establishment of a symmetric spindle axis. B. Inhibition of the kinesin Eg5 results in monastrol spindles. Microtubules, green; chromosomes, blue. Eg5 is depicted as homotetramer (9). C. […] After imaging Eg5 driven microtubule gliding in the presence of monastrol (200 μM), the same assay chamber was depleted of compound and the microtubule gliding recorded (Washout). […] D. Chemical structures of monastrol and DHP2.
Eg5 is a member of the kinesin superfamily, which includes over 100 homologous proteins involved in organelle transport, membrane organization, and assembly and maintenance of mitotic spindles (Vale et al., Annu. Rev. Cell. Dev. Biol. 13:745, 1997). To test whether monastrol affects other motor proteins, we first assayed its ability to inhibit microtubule gliding driven by conventional kinesin in vitro. The N-terminal motor domain of conventional kinesin shares 33% sequence identity with the Eg5 motor domain (Kapoor et al., Proc. Natl. Acad. Sci. USA, 1999). […] We next investigated whether monastrol disturbs the distribution of lysosomes or the Golgi apparatus in vivo. […]

For monastrol, the “inhibition of microtubule gliding driven by conventional kinesin” value was “no inhibition; also recorded: does not inhibit”.
